According to PMC3681905, “Anti-Influenza Activity of C60 Fullerene Derivatives” (PLoS ONE, 2013):
Where two headings read alike, the source gives them in different places.

Experiments:
[1] = test system: influenza A virus A/PR/8/34 (H1N1); assay: microbe, parasite or virus in culture; assay type: cell-based; conditions: read-out: IC50 H1N1 PR8 strain
[2] = set-up: method as in earlier work; conditions: cited from earlier work
[3] = test system: influenza A virus A/Aichi/2/68 (H3N2); assay: microbe, parasite or virus in culture; assay type: cell-based; conditions: read-out: IC50 H3N2 Aichi strain
[4] = test system: HIV-reverse transcriptase; set-up: method as in PMID 15686922; conditions: cited from earlier work

Row | Molecule | IC50 [1] [µM] | antioxidant activity [2] | IC50 [3] [µM] | IC50 ([1]; Influenza A virus, MDCK, 24 h) [µM] | inhibition of HIV-reverse transcriptase [4] | IC50 ([3]; Influenza A virus, H3N2, MDCK, 24 h) [µM]
1 | [60]fullerenodicyclopropane-1,1,1′,1′-tetracarboxylic acid [no. 2] | 57 | excellent antioxidant activity | > 100 | – | – | –
2 | O=C(O)C1NC(C(=O)O)C23c4c5c6c7c8c9c(c%10c%11c2c2c4c4c%12c5c5c6c6c8c8c%13c9c9c%10c%10c%11c%11c2c2c4c4c%12c%12c5c5c6c8c6c8c%13c9c9c%10c%10c%11c2c2c4c4c%12c5c6c5c8c9c%10c2c45)C713 (stereo not drawn) [no. 3, [60]fullerenopyrrolidine-2,5-dicarboxylic acid] | – | – | – | > 100 | inhibits | > 100
